# From paper PMC10111420, “Optimization of Host Cell-Compatible, Antimicrobial Peptides Effective against Biofilms and Clinical Isolates of Drug-Resistant Bacteria” (ACS Infectious Diseases, 2023)
# Where a SMILES comes first, the peptide text is derived from it. [ ]: non-standard residue; d: D form.
# Experiments:
# wound infections = assay: Murine wound model, once or twice per day dosing and viscous polymer formulations; format: in vivo, mice; settings: 75 μg of peptide in 20 μL of buffer (PBS)
# Source text: Preliminary data had shown that once per day treatments in a simple aqueous vehicle were ineffective against wound infections in this model, see Figure S2. Three times per day is required for efficacy in simple media, Figure 8. Therefore, we also tested the effectiveness of D-CONGA-Q7 formulated in aqueous suspensions of carboxymethyl cellulose and Xanthan gum, which are anionic carbohydrate polymers that create highly viscous solutions at ∼1% w/v concentration. […] Clinically useful formulations of these peptides may be straightforward to develop.
# Figure S2. Activity of D-CONGA-Q7 in wound model using 1x and 2x per day administration. Experiments were performed as described in main text, except that treatments with 75 μg of peptide in 20 μL of buffer were administered only once or twice per day. Bacterial […]
# in PBS. Also, Tegaderm biofilm formation is not inhibited by peptide under these conditions.
# Results for three times per day administration are shown in Figs. 8&9 of the main manuscript.
# (1 picture or pasted object on this page, not shown here)
# Radial diffusion results Murine wound infection
# A C 6 hour incubation E 10 Once per day treatment with:
# 1.0 Buffer and viscous polymers D-CONGA-Q7 in 0.75% CMC
# Peptide concentration (µM)
# B D 24 hour incubation Once per day treatment with:
# Buffer and viscous polymers 0.75% XG Vehicle only
# 1.0% XG D-CONGA-Q7 in 0.75% XG […]
# [1] = system: luminescent P. aeruginosa (PAO1); assay: Murine wound infection model, P. aeruginosa; format: in vivo, CD1 mice; settings: 75 μg in 20 μL water with 0.025% acetic acid, topical, every 8 h for the first 5 days; luminescence (IVIS), Days 1–3; four animals per group
# Description: Wound luminescence values were recorded once per day for each animal during the experiment using an IVIS whole animal imaging system. Total luminescence values, integrated over the entire wound area, were averaged for the four animals in each group. Treated versus control values were compared for each day using a two-sample t-test. Multiple comparisons were corrected using the method of Bonferroni.
# [2] = system: K. pneumoniae clinical isolates
# Description: Subcultures, prepared by inoculating 25 mL of fresh tryptic soy broth (TSB) with 200 μL of an overnight culture, were grown to log phase (OD600 = 0.3–0.6), after which cell counts were determined by measuring the OD600 (1.0 = 5 × 10^8 CFU/mL for E. coli, 4 × 10^8 CFU/mL for K. pneumoniae, 4 × 10^8 CFU/mL for P. aeruginosa, 1.5 × 10^8 CFU/mL for S. aureus). Bacterial cells were diluted to appropriate concentrations in TSB. We used the following clinical bacterial isolates of Klebsiella pneumoniae in this study: Strains KP6, KP46, NDM-1, KP396, and KP398 have been previously described.[43] ST58 strains C2, C3, and I2 are also described.[41] […] MRSA, […] S. aureus strain, is SAP400, a USA400 strain of community-acquired MRSA. […] The second independent set of K. pneumoniae isolates are previously described.[20],[21]
# The antibiotics were serially diluted by a factor of 2:3 horizontally across 96-well plates from Corning, 25 μL per well. One column was reserved for controls. For the assays performed in the presence of RBC, type O+ human RBCs at 0 or 2.5 × 10^9 cells/mL were added in 50 μL aliquots to all wells. Following a 30-min incubation, 50 μL of TSB, inoculated with 5 × 10^5 CFU/mL, was added to all wells, and plates were incubated overnight at 37 °C. Following overnight incubation at 37 °C, the OD600 was measured (values of less than 0.1 were considered sterilized). To assess bacterial growth in the assays with RBC, the OD600 was measured after a second-day inoculation with 10 μL of solution from the original plate added to 100 μL of sterile TSB followed by overnight incubation.
# Experiments were repeated four to eight times independently, with pairs of replicate measurements on each 96-well plate. After overnight growth, optical densities were measured at 660 nm and the sterilized wells were identified by having O.D. < 0.08. Nonsterilized wells were nearly opaque with OD > 0.6. For each measurement, we recorded the largest dilution that sterilized the bacteria. Statistics are done on dilution numbers, rather than calculated concentrations, because only the former have normal distributions.
# human RBCs = format: cell-based
# Summary of the method: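 Washed human O+ erythrocytes (2 × 10^8 cells/mL stock, mixed 1:1) were incubated with peptide serially diluted from 100 μM in PBS for 1 h at 37 °C. Released hemoglobin was read at 410 nm in supernatant; fractional hemolysis calculated against 1% Triton (100%) and 0% lysis controls, averaged over ≥3 experiments.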
structure (smiles),measurement,setting,value
CC(C)C[C@@H](NC(=O)[C@@H](CCC(N)=O)NC(=O)[C@@H](CCCNC(=N)N)NC(=O)[C@@H](CCCNC(=N)N)NC(=O)[C@@H](C)NC(=O)[C@@H](Cc1c[nH]c2ccccc12)NC(=O)[C@@H](CCCNC(=N)N)NC(=O)[C@H](N)CCCNC(=N)N)C(=O)N[C@H](C)C(=O)N[C@H](Cc1ccccc1)C(=O)N[C@H](C)C(=O)N[C@H](Cc1ccccc1)C(=O)N[C@H](CCCNC(=N)N)C(=O)N[C@H](CCCNC(=N)N)C(N)=O [D-CONGA-Q7] (H-[dR][dR][dW][dA][dR][dR][dQ][dL][dA][dF][dA][dF][dR][dR]-NH2; N-terminus assumed),"Tegaderm biofilm formation, once or twice per day administration",wound infections,not inhibited
same,"Wound bacterial burden, once or twice per day administration",wound infections,not reduced significantly
same,Reduction of P. aeruginosa burden,[1],~2 logs
same,"K. Pneumoniae Isolate MIC, 1000527",[2],6.8 µM
same,"K. Pneumoniae Isolate MIC, 1002565",[2],5.1 µM
same,"K. Pneumoniae Isolate MIC, 1100770",[2],5.1 µM
same,"K. Pneumoniae Isolate MIC, 1100975",[2],3.4 µM
same,"K. Pneumoniae Isolate MIC, ATCC 43816",[2],6.8 µM
same,"K. Pneumoniae Isolate MIC, ATCC 700721",[2],6.8 µM
same,"K. Pneumoniae Isolate MIC, K6",[2],3.4 µM
same,"K. Pneumoniae Isolate MIC, K 6.1",[2],3.4 µM
same,"K. Pneumoniae Isolate MIC, K 6.2",[2],5.1 µM
same,"K. Pneumoniae Isolate MIC, KP 80",[2],3.4 µM
same,"K. Pneumoniae Isolate MIC, KP NIH 1",[2],6.8 µM
same,"K. Pneumoniae Isolate MIC, KP NIH 10",[2],> 25 µM
same,"K. Pneumoniae Isolate MIC, KP NIH 24",[2],6.8 µM
same,"K. Pneumoniae Isolate MIC, KP NIH 27",[2],3.4 µM
same,"K. Pneumoniae Isolate MIC, KP NIH 29",[2],2.5 µM
same,"K. Pneumoniae Isolate MIC, KP NIH 30",[2],3.4 µM
same,"K. Pneumoniae Isolate MIC, KP NIH 31",[2],3.4 µM
same,"K. Pneumoniae Isolate MIC, KP NIH 32",[2],6.8 µM
same,"K. Pneumoniae Isolate MIC, KP NIH 33",[2],1.3 µM
same,Hemolysis at 100 μM (fractional hemolysis),human RBCs,0.07
